Data from PMC7570910, “8-Hydroxyquinoline Glycoconjugates Containing Sulfur at the Sugar Anomeric Position—Synthesis and Preliminary Evaluation of Their Cytotoxicity” (Molecules, 2020).

Key:
Format in all cases: cell-based
[1] = test system: HCT-116 cells; assay: MTT cytotoxicity assay, HCT-116; settings: Homo sapiens, incubation time 24 h, mean ± SD (n = 3)
[2] = test system: MCF-7 cells; assay: MTT cytotoxicity assay, MCF-7; settings: Homo sapiens, MCF7, incubation time 72 h, mean ± SD (n = 3)
Experimental: (§1) In vitro cytotoxicity studies of the obtained building blocks and glycoconjugates were carried out on cell lines characterized by the high expression of GLUT transporters and the strongly changed glucose metabolism (strong Warburg effect). […] Cytotoxicity was evaluated using the MTT assay.
The human cell line MCF-7 was obtained from collections at the Maria Sklodowska-Curie Memorial Cancer Center and Institute of Oncology, branch in Gliwice, Poland. […] The culture media were purchased from EuroClone and HyClone. Fetal bovine serum (FBS) was delivered by EURx, Poland, and Antibiotic Antimycotic Solution (100×) by Sigma-Aldrich, Germany. The cells were cultured under standard conditions at 37 °C in a humidified atmosphere at 5% CO2.
(§2) The viability of the cells was determined using an MTT (3-[4,5–dimethylthiazol-2-yl]-2,5-diphenyltetrazolium bromide) test (Sigma-Aldrich). Stock solutions of tested compounds were prepared in DMSO and diluted with the appropriate volumes of the growth medium directly before the experiment. […] The cell cultures were incubated for 24 h at 37 °C in a humidified atmosphere of 5% CO2. Then, the culture medium was removed, replaced with the solution of the tested compounds in medium with varying concentrations, and incubated for further 24 h or 72 h. After that, the medium was removed, and the MTT solution (50 µL, 0.5 mg/mL in PBS) was added. After 3 h of incubation, the MTT solution was removed, and the precipitated formazan was dissolved in DMSO. Finally, the absorbance at the 570 nm wavelength was measured spectrophotometrically with the plate reader. The experiment was conducted in at least three independent iterations with four technical repetitions. The IC50 values were calculated using CalcuSyn software (version 2.0, Biosoft, Cambridge, UK).

[3] = test system: Normal Human Dermal Fibroblasts-Neonatal (NHDF-Neo); assay: MTT cytotoxicity assay, NHDF-Neo; settings: incubation time 24 h, mean ± SD (n = 3)
Experimental: as §1
[…] […] The culture media were purchased from EuroClone and HyClone. Fetal bovine serum (FBS) was delivered by EURx, Poland, and Antibiotic Antimycotic Solution (100×) by Sigma-Aldrich, Germany. The cells were cultured under standard conditions at 37 °C in a humidified atmosphere at 5% CO2.
as §2

[4] = test system: Normal Human Dermal Fibroblasts-Neonatal (NHDF-Neo); assay: Influence of metal ions on cellular proliferation (MTT with Cu2+), NHDF-Neo; settings: MTT assay, 24 h, addition of copper acetate at 100 µM
Experimental: (§3) Cultured cancer cells, in contrast to in vivo environment, are characterized by a low copper level. Therefore, additional experiments were carried out for compounds whose expected mechanism of action is based on the chelation of metal ions. The antiproliferative activities of glycoconjugates 67, 68, 70, and 71 were tested in the presence of Cu^2+ ions. The effect of the interaction of glycoconjugate complexes with metal ions on cell proliferation was measured by adding a copper salt solution to the growth medium and observing the rate of cell growth compared to copper-untreated cells.
(§4) During the appropriate experiments, the cells (MCF-7, HCT-116, and NHDF-Neo) were treated with solutions of glycoconjugate 67, 68, 70, or 71 in medium culture, supplemented with 100 µM copper acetate, and then their proliferation was measured by the MTT assay. The control system was cells suspended in medium supplemented with DMSO in the amount used to dissolve the compounds and the addition of the same amount of copper. […] The highest cytotoxic activity of the compounds was observed against the MCF-7 cell line. […] This confirmed the strong sensitivity of breast cancer cells to 8-HQ derivatives.
(§5) The cells were seeded into 96-well plates at concentration 1 × 10^4 (HCT 116, NHDF-Neo) or 5 × 10^3 (MCF-7) per well. The cell cultures were incubated for 24 h at 37 °C in a humidified atmosphere of 5% CO2. Then, the culture medium was removed, replaced with the solution of the tested compounds in medium with varying concentrations. Additionally, 100 µM solution of Cu(CH3COO)2 was added into wells with tested compounds. After 24 h or 72 h incubation, the MTT assay was performed.

[5] = test system: HCT-116 cells; assay: Influence of metal ions on cellular proliferation (MTT with Cu2+), HCT-116; settings: Homo sapiens, MTT assay, 24 h, addition of copper acetate at 100 µM
Experimental: as §3, §4, §5

[6] = test system: MCF-7 cells; assay: Influence of metal ions on cellular proliferation (MTT with Cu2+), MCF-7; settings: Homo sapiens, MCF7; MTT assay, 72 h, addition of copper acetate at 100 µM
Experimental: as §3, §4
It can be seen that the greatest differences in cell survival occurred in the case of MCF-7 cell lines. A significant decrease in the proliferation of MCF-7 cells was observed after treatment with glycoconjugates at a concentration of 50 µM in the presence of Cu^2+ (cell viability 10–28%), compared to experiments with glycoconjugates alone. In this case, the cytotoxicity of glycoconjugates increased about three-fold in the presence of Cu(II) ions. […] For HCT-116 and NHDF-Neo cell lines, only slight differences in cell viability were observed after treatment with free compounds and when […] ions were added.
as §5

`Cc1ccc2cccc(O)c2n1` [Compound 2Me8HQ, 8-hydroxyquinaldine, reference compound] showed an IC50 [1] greater than 800 µM.
Compound `Oc1cccc2cccnc12` [Compound 8HQ, 8-hydroxyquinoline] has an IC50 [1] greater than 800 µM, an IC50 [2] of 0.24 ± 0.01 µM and an IC50 [3] greater than 800 µM.
`CC(=O)OC[C@H]1O[C@@H](Sc2ccc(NC(=O)CN=[N+]=[N-])cn2)[C@H](OC(C)=O)[C@@H](OC(C)=O)[C@@H]1OC(C)=O` [Compound 33, (5-azidoacetamide-2-pyridyl) 2,3,4,6-tetra-O-acetyl-1-thio-β-D-glucopyranoside] showed an IC50 [1] of 13.39 ± 0.1 µM, an IC50 [2] of 6.39 ± 0.07 µM and an IC50 [3] of 11.2 ± 0.31 µM.
In the case of `CC(=O)OC[C@H]1O[C@@H](Sc2ccc(NC(=O)CN=[N+]=[N-])cn2)[C@H](OC(C)=O)[C@@H](OC(C)=O)[C@H]1OC(C)=O` [Compound 34, (5-azidoacetamide-2-pyridyl) 2,3,4,6-tetra-O-acetyl-1-thio-β-D-galactopyranoside], the IC50 [1] is reported as 541.4 ± 3.73 µM and the IC50 [2] is reported as 383 ± 4.23 µM.
Compound `[N-]=[N+]=NCC(=O)Nc1ccc(S[C@@H]2O[C@H](CO)[C@@H](O)[C@H](O)[C@H]2O)nc1` [Compound 35, (5-azidoacetamide-2-pyridyl) 1-thio-β-D-glucopyranoside] has an IC50 [1] greater than 800 µM and an IC50 [2] greater than 800 µM.
For `C#CCOC(=O)Nc1ccc(S[C@@H]2O[C@H](COC(C)=O)[C@@H](OC(C)=O)[C@H](OC(C)=O)[C@H]2OC(C)=O)nc1` [Compound 36, (5-(((prop-2-yn-1-yloxy)carbonyl)amino)-2-pyridyl) 2,3,4,6-tetra-O-acetyl-1-thio-β-D-glucopyranoside], the IC50 [1] was 125 ± 8.98 µM, the IC50 [2] was 38.3 ± 2.44 µM and the IC50 [3] was 41.7 ± 3.4 µM.
`C#CCOC(=O)Nc1ccc(S[C@@H]2O[C@H](COC(C)=O)[C@H](OC(C)=O)[C@H](OC(C)=O)[C@H]2OC(C)=O)nc1` [Compound 37] was tested, and the IC50 [1] was 456.7 ± 3.85 µM and the IC50 [2] was 392 ± 5.29 µM.
For `C#CCOC(=O)Nc1ccc(S[C@@H]2O[C@H](CO)[C@@H](O)[C@H](O)[C@H]2O)nc1` [Compound 38], the IC50 [1] was greater than 800 µM and the IC50 [2] was greater than 800 µM.
Compound `CC(=O)OC[C@H]1O[C@@H](SCc2cn(CCCOc3cccc4cccnc34)nn2)[C@H](OC(C)=O)[C@@H](OC(C)=O)[C@@H]1OC(C)=O` [Compound 59] has an IC50 [1] of 173 ± 3.48 µM, an IC50 [2] of 153.3 ± 0.25 µM and an IC50 [3] of 229.1 ± 2.06 µM.
In the case of `CC(=O)OC[C@H]1O[C@@H](SCc2cn(CCCOc3cccc4cccnc34)nn2)[C@H](OC(C)=O)[C@@H](OC(C)=O)[C@H]1OC(C)=O` [Compound 60], the IC50 [1] is reported as 304.8 ± 1.34 µM, the IC50 [2] is reported as 212 ± 3.46 µM and the IC50 [3] is reported as 421.2 ± 0.14 µM.
Compound `CC(=O)OC[C@H]1O[C@@H](SCc2cn(CCCOc3cccc4ccc(C)nc34)nn2)[C@H](OC(C)=O)[C@@H](OC(C)=O)[C@@H]1OC(C)=O` [Compound 61] has an IC50 [1] of 108 ± 1.62 µM, an IC50 [2] of 130.4 ± 0.2 µM and an IC50 [3] of 260 ± 7.65 µM.
In the case of `CC(=O)OC[C@H]1O[C@@H](SCc2cn(CCCOc3cccc4ccc(C)nc34)nn2)[C@H](OC(C)=O)[C@@H](OC(C)=O)[C@H]1OC(C)=O` [Compound 62], the IC50 [1] is reported as 324 ± 1.61 µM, the IC50 [2] is reported as 244 ± 3.04 µM and the IC50 [3] is reported as 667.6 ± 6.43 µM.
`OC[C@H]1O[C@@H](SCc2cn(CCCOc3cccc4cccnc34)nn2)[C@H](O)[C@@H](O)[C@@H]1O` [Compound 63] gave an IC50 [1] greater than 800 µM and an IC50 [2] greater than 800 µM.
`Cc1ccc2cccc(OCCCn3cc(CS[C@@H]4O[C@H](CO)[C@@H](O)[C@H](O)[C@H]4O)nn3)c2n1` [Compound 65] showed an IC50 [1] greater than 800 µM and an IC50 [2] greater than 800 µM.
`Cc1ccc2cccc(OCCCn3cc(CS[C@@H]4O[C@H](CO)[C@H](O)[C@H](O)[C@H]4O)nn3)c2n1` [Compound 66] gave an IC50 [1] greater than 800 µM and an IC50 [2] greater than 800 µM.
`CC(=O)OC[C@H]1O[C@@H](Sc2ccc(NC(=O)Cn3cc(COc4cccc5cccnc45)nn3)cn2)[C@H](OC(C)=O)[C@@H](OC(C)=O)[C@@H]1OC(C)=O` [Compound 67] gave an IC50 [1] of 146 ± 3.49 µM, an IC50 [2] of 69.7 ± 3.5 µM and an IC50 [4] of 71.4 ± 1.35 µM. The IC50 [3] was 71.8 ± 6.7 µM, the IC50 [5] was 74.5 ± 0.16 µM and the IC50 [6] was 28.9 ± 1.52 µM.
Compound `CC(=O)OC[C@H]1O[C@@H](Sc2ccc(NC(=O)Cn3cc(COc4cccc5cccnc45)nn3)cn2)[C@H](OC(C)=O)[C@@H](OC(C)=O)[C@H]1OC(C)=O` [Compound 68] has an IC50 [1] of 130 ± 1.31 µM, an IC50 [2] of 96.3 ± 5.99 µM and an IC50 [4] of 83.6 ± 3.03 µM. The IC50 [3] was 111 ± 2.78 µM, the IC50 [5] was 96.01 ± 0.59 µM and the IC50 [6] was 23.8 ± 0.48 µM.
In the case of `O=C(Cn1cc(COc2cccc3cccnc23)nn1)Nc1ccc(S[C@@H]2O[C@H](CO)[C@@H](O)[C@H](O)[C@H]2O)nc1` [Compound 69], the IC50 [1] is reported as 210.4 ± 0.55 µM, the IC50 [2] is reported as 144 ± 2.68 µM and the IC50 [3] is reported as 163.81 ± 0.01 µM.
With `CC(=O)OC[C@H]1O[C@@H](Sc2ccc(NC(=O)OCc3cn(CCCOc4cccc5cccnc45)nn3)cn2)[C@H](OC(C)=O)[C@@H](OC(C)=O)[C@@H]1OC(C)=O` [Compound 70] the IC50 [1] was 63.5 ± 2.37 µM, the IC50 [2] was 67.5 ± 1.58 µM and the IC50 [4] was 68.4 ± 1.11 µM. For the same compound, the IC50 [3] was 64 ± 5.34 µM, the IC50 [5] was 73.9 ± 2.99 µM and the IC50 [6] was 25.9 ± 1.76 µM.
`CC(=O)OC[C@H]1O[C@@H](Sc2ccc(NC(=O)OCc3cn(CCCOc4cccc5cccnc45)nn3)cn2)[C@H](OC(C)=O)[C@@H](OC(C)=O)[C@H]1OC(C)=O` [Compound 71] was tested, and the IC50 [1] was 90.68 ± 0.52 µM, the IC50 [2] was 68.3 ± 3.68 µM and the IC50 [4] was 69.3 ± 2.9 µM. For the same compound, the IC50 [3] was 75.26 ± 0.38 µM, the IC50 [5] was 83 ± 1.37 µM and the IC50 [6] was 20.5 ± 1.55 µM.
Compound `O=C(Nc1ccc(S[C@@H]2O[C@H](CO)[C@@H](O)[C@H](O)[C@H]2O)nc1)OCc1cn(CCCOc2cccc3cccnc23)nn1` [Compound 72] has an IC50 [1] greater than 800 µM, an IC50 [2] of 739.2 ± 3.79 µM and an IC50 [3] greater than 800 µM.
`COc1cccc2c1C(=O)c1c(O)c3c(c(O)c1C2=O)C[C@@](O)(C(=O)CO)C[C@@H]3O[C@H]1C[C@H](N)[C@H](O)[C@H](C)O1` [Doxorubicin, reference compound] gave an IC50 [1] of 5.59 ± 0.14 µM, an IC50 [2] of 0.67 ± 0.01 µM and an IC50 [3] greater than 20 µM.
